Results from PMC11062899, “De novo development of small cyclic peptides that are orally bioavailable” (Nature Chemical Biology, 2023).
“And” between values parts separate entries of the source, which are not always exact repeats. Identical values can stand only once.

Legend:
rat α-thrombin = target: T1, rat α-thrombin (Rattus norvegicus, UniProt P18292); assay: Protease inhibition, Ki for rat α-thrombin (fluorogenic substrate Z-Gly-Gly-Arg-AMC); assay type: biochemical; details: replicates R1-R3
T1 construct: rat α-thrombin (Molecular Innovations) were used at final concentrations of 2 nM and 3 nM; purchased Molecular Innovations
In short: (§1)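 Ki derived through Cheng–Prusoff from IC50s (four-parameter logistic fit) against activity of peptide-free controls. Product fluorescence was read every 3 min over 30 min at 25 °C, substrate Z-Gly-Gly-Arg-AMC at 50 μM. Enzyme was 2 nM human or 3 nM rat α-thrombin, pH 7.4 buffer.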

[1] = Passive artificial membrane permeability (PAMPA)
human α-thrombin = human α-thrombin (Homo sapiens, UniProt P00734); assay: Protease inhibition, Ki for human α-thrombin (fluorogenic substrate Z-Gly-Gly-Arg-AMC); assay type: biochemical; details: replicates R1-R3
In short: as §1

porcine pancreatin = assay: Peptide stability in simulated intestinal fluid (SIF); assay type: in vitro ADME; details: after 8 h vs 0 h (TIC); average of R1-R3
Experimental: (§2) Simulated gastric and intestinal fluids were prepared according to the States Pharmacopeia specifications (Test Solutions, United States Pharmacopeia 35, NF 30, 2012). SGF: 0.2 g of sodium chloride was dissolved in 50 ml of water, and the pH was adjusted to 1.2 by addition of 0.7 ml of 10 M hydrochloric acid. Then, 0.32 g of porcine pepsin (Sigma-Aldrich, P7125) was dissolved under gentle agitation, and the volume was filled up to 100 ml with Milli-Q water. SIF: 0.68 g of monobasic potassium phosphate was dissolved in 25 ml of Milli-Q water, and the pH was adjusted to 6.8 by adding 7.7 ml of a 0.2 M sodium hydroxide solution. Next, 1 g of porcine pancreatin (Sigma-Aldrich, P3292) was added under gentle agitation, and the volume was adjusted to 100 ml with Milli-Q water to afford a fine suspension. To test the stability in simulated gastrointestinal fluids, 396 μl of SGF or SIF was pre-heated at 37 °C for 10 min, and 4 μl of a 1 mM peptide solution in DMSO was added. […] Supernatant was analyzed by LC–MS to measure the peptide concentrations at the different timepoints. Residual peptide was calculated by normalizing the concentrations measured at T1 to T0.

[2] = as above; assay type: in vitro ADME, porcine; details: simulated gi fluid; 8 h, 37 °C, pH 6.8; read-out: Proteolytic stability: SIF (8 h) % remaining
Experimental: as §2

porcine pepsin = target: T2, porcine pepsin (Sus scrofa, UniProt P00791); assay: Peptide stability in simulated gastric fluid (SGF); assay type: in vitro ADME
T2 construct: 0.32 g of porcine pepsin (Sigma-Aldrich, P7125) was dissolved under gentle agitation; purchased Sigma-Aldrich P7125
T2 sequence (P00791 60-385): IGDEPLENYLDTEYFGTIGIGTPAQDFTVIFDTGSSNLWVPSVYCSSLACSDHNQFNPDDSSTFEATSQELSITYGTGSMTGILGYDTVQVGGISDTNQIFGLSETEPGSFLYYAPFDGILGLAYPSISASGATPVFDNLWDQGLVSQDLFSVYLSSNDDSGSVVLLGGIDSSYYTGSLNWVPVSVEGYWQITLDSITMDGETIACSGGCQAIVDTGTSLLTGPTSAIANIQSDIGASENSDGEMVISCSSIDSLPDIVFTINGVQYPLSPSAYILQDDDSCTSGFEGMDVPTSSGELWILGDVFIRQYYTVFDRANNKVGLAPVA
Experimental: as §2

[3] = Metabolic stability in rat liver microsomes (RLMs); details: rat, microsomes
[4] = peptide 1.33E+02 uM, slope of proteolytic substrate cleavage over time

Structure (SMILES): O=C1C[C@H]2CCCN2C(=O)[C@H](Cc2ccccn2)NC(=O)[C@@H](NC(=O)c2ccc(Cl)s2)CSCCS(=O)(=O)CCSCCN1 [compound 12]
- Rat alpha thrombin inhibition, slope normalized to DMSO (rat α-thrombin; [4]): 4.6 and 7.6 and 2.5
- Rat alpha thrombin inhibition, slope normalized to DMSO (rat α-thrombin; peptide 1.67E+01 uM): 7.9 and 9.3 and 7.8
- Rat alpha thrombin inhibition, slope normalized to DMSO (rat α-thrombin; peptide 2.08E+00 uM): 26.1 and 28.9 and 26.4
- Rat alpha thrombin inhibition, slope normalized to DMSO (rat α-thrombin; peptide 3.33E+01 uM): 4.7 and 8.8 and 5.5
- Rat alpha thrombin inhibition, slope normalized to DMSO (rat α-thrombin; peptide 4.17E+00 uM): 21.7 and 23.0 and 20.8
- Rat alpha thrombin inhibition, slope normalized to DMSO (rat α-thrombin; peptide 6.67E+01 uM): 5.5 and 8.4 and 4.7
- Rat alpha thrombin inhibition, slope normalized to DMSO (rat α-thrombin; peptide 8.33E+00 uM): 11.6 and 14.0 and 11.0
- PAMPA permeability: % permeability ([1]; 50 μM, 12–18 h, acceptor concentration relative to equilibrium): 0.35 ± 0.03%
- Papp at 50 μM ([1]; PAMPA, pH 7.4): 0.0229 ×10⁻⁶ cm/s
- Permeability% Average ([1]; PAMPA, average of R1-R3): 0.35%
- Permeability% R1 ([1]; PAMPA, replicate R1, TIC of top well sample relative to sample at theoretical equilibrium): 0.32%
- Permeability% R3 ([1]; PAMPA, replicate R3, TIC of top well sample relative to sample at theoretical equilibrium): 0.38%
- Human alpha thrombin inhibition, slope normalized to DMSO (human α-thrombin; peptide 1.02E-03 uM): 102.9 and 99.8 and 96.6
- Human alpha thrombin inhibition, slope normalized to DMSO (human α-thrombin; peptide 1.04E+00 uM): 56.9 and 56.3 and 49.2
- Human alpha thrombin inhibition, slope normalized to DMSO (human α-thrombin; peptide 1.27E-04 uM): 90.5 and 95.3 and 95.8
- Human alpha thrombin inhibition, slope normalized to DMSO (human α-thrombin; peptide 1.30E-01 uM): 71.9 and 86.4 and 78.8
- Human alpha thrombin inhibition, slope normalized to DMSO (human α-thrombin; [4]): 6.4 and 9.7 and 4.3
- Human alpha thrombin inhibition, slope normalized to DMSO (human α-thrombin; peptide 1.63E-02 uM): 99.5 and 89.1 and 90.1
- Human alpha thrombin inhibition, slope normalized to DMSO (human α-thrombin; peptide 1.67E+01 uM): 16.0 and 14.1 and 9.4
- Human alpha thrombin inhibition, slope normalized to DMSO (human α-thrombin; peptide 2.03E-03 uM): 98.8 and 94.5 and 92.3
- Human alpha thrombin inhibition, slope normalized to DMSO (human α-thrombin; peptide 2.08E+00 uM): 52.9 and 44.1 and 36.2
- Human alpha thrombin inhibition, slope normalized to DMSO (human α-thrombin; peptide 2.54E-04 uM): 106.8 and 94.8 and 97.0
- Human alpha thrombin inhibition, slope normalized to DMSO (human α-thrombin; peptide 2.60E-01 uM): 78.1 and 77.3 and 67.5
- Human alpha thrombin inhibition, slope normalized to DMSO (human α-thrombin; peptide 3.18E-05 uM): 100.4 and 97.0 and 90.2
- Human alpha thrombin inhibition, slope normalized to DMSO (human α-thrombin; peptide 3.26E-02 uM): 100.0 and 89.9 and 87.8
- Human alpha thrombin inhibition, slope normalized to DMSO (human α-thrombin; peptide 3.33E+01 uM): 12.7 and 10.3 and 16.0
- Human alpha thrombin inhibition, slope normalized to DMSO (human α-thrombin; peptide 4.07E-03 uM): 92.6 and 96.1 and 91.8
- Human alpha thrombin inhibition, slope normalized to DMSO (human α-thrombin; peptide 4.17E+00 uM): 39.5 and 36.2 and 29.7
- Human alpha thrombin inhibition, slope normalized to DMSO (human α-thrombin; peptide 5.09E-04 uM): 101.4 and 93.9 and 96.1
- Human alpha thrombin inhibition, slope normalized to DMSO (human α-thrombin; peptide 5.21E-01 uM): 64.5 and 65.3 and 59.0
- Human alpha thrombin inhibition, slope normalized to DMSO (human α-thrombin; peptide 6.36E-05 uM): 103.2 and 97.0 and 93.0
- Human alpha thrombin inhibition, slope normalized to DMSO (human α-thrombin; peptide 6.51E-02 uM): 93.3 and 87.6 and 88.6
- Human alpha thrombin inhibition, slope normalized to DMSO (human α-thrombin; peptide 6.67E+01 uM): 9.5 and 8.1 and 4.7
- Human alpha thrombin inhibition, slope normalized to DMSO (human α-thrombin; peptide 8.14E-03 uM): 100.4 and 99.0 and 91.1
- Human alpha thrombin inhibition, slope normalized to DMSO (human α-thrombin; peptide 8.33E+00 uM): 24.1 and 22.7 and 13.9
- SIF stability, Residual peptide Average (porcine pancreatin): 95.62
- remaining at 8 h [2]: 96 ± 6%
- SGF stability, Residual peptide Average (porcine pepsin; after 8 h vs 0 h (TIC), average of R1-R3): 99.15
- SGF stability, Residual peptide (porcine pepsin; after 8 h vs 0 h (TIC), single replicates R1-R3): 102.14 and 93.27 and 102.05
- remaining at 8 h (porcine pepsin; simulated gi fluid, 8 h, 37 °C, pH 1.2, read-out: Proteolytic stability: SGF (8 h) % remaining): 99 ± 5%
- microsomal CLint ([3]; CL (ul/min/mg protein) R1, RLM CL, replicate R1): 90.2 µL/min/mg
- microsomal CLint ([3]; CL (ul/min/mg protein) R2, RLM CL, replicate R2): 68.8 µL/min/mg
- microsomal CLint ([3]; CL (ul/min/mg protein) R3, RLM CL, replicate R3): 72.9 µL/min/mg
- half-life ([3]; Half Life (min) R1, RLM metabolic stability, replicate R1, 0-60 min): 15.4 min
- half-life ([3]; Half Life (min) R2, RLM metabolic stability, replicate R2, 0-60 min): 20.1 min
- half-life ([3]; Half Life (min) R3, RLM metabolic stability, replicate R3, 0-60 min): 19 min
- half-life ([3]; Metabolic stability: Half life T1/2 (min), RLMs, mean and SD, three measurements): 18.2 ± 2 min
- microsomal CLint ([3]; Metabolic stability: RLM CL (ul/min/mg), RLMs, mean and SD, three measurements): 77 ± 9 µL/min/mg
- microsomal CLint ([3]; Metabolic stability: RLM CL Average, summary table, average of R1-R3): 77.3 µL/min/mg
- microsomal CLint ([3]; Metabolic stability: RLM CL R1, summary table, rounded, replicate R1): 90.2 µL/min/mg
- microsomal CLint ([3]; Metabolic stability: RLM CL R2, summary table, rounded, replicate R2): 68.8 µL/min/mg
- microsomal CLint ([3]; Metabolic stability: RLM CL R3, summary table, rounded, replicate R3): 73 µL/min/mg
